# Test results from patent publication US8563597B2, “Fused tricyclic ether carbamates and their use” (priority 2010, dated 2013).
# Columns and labels:
# HIV-1 protease = HIV-1 protease (Human immunodeficiency virus type 1 group M subtype B, UniProt P04585); assay: Enzymatic inhibitory activity (Ki) against HIV-1 protease; type: biochemical
# HIV-1LAI = assay: Antiviral activity against HIV-1LAI; type: cell-based; settings: Human immunodeficiency virus 1
# [1] = system: HIV-1ERS104pre (wild-type: X4); assay: Antiviral activity against clinical isolates in PHA-PBMs (p24 Gag production); type: cell-based
# Description: (§1) Relative Antiviral activity of 33, and 34 against multi-drug resistant clinical isolates in PHA-PBMs
# HIV-1MDR/B (X4) = assay: Antiviral activity against multi-drug resistant clinical isolates in PHA-PBMs (p24 Gag production); type: cell-based
# Description: as §1
# HIV-1MDR/C (X4) = assay: as above; type: cell-based
# Description: as §1
# HIV-1MDR/G (X4) = assay: as above; type: cell-based
# Description: as §1
# HIV-1MDR/JSL (R5) = assay: as above; type: cell-based
# Description: as §1
# HIV-1MDR/MM (R5) = assay: as above; type: cell-based
# Description: as §1
# HIV-1MDR/TM (X4) = assay: as above; type: cell-based
# Description: as §1
# [2] = system: highly PI-resistant clinical HIV-1 variants; settings: in vitro; result in words
# Description: In another embodiment, novel oxatricyclic [3(R), 3aS, 4aS, 7aR, 8aS] and [3(R), 3aS, 4aR, 7aS, 8aS]-ligands were designed, synthesized, and incorporated into the (R)-hydroxyethyl sulfonamide isostere. […] The antiviral activity of 33 against a panel of highly PI-resistant clinical HIV-1 variants in vitro was measured.
compound,measurement,setting,value
COc1ccc(S(=O)(=O)N(CC(C)C)C[C@@H](O)[C@H](Cc2ccccc2)NC(=O)OC2CCCC3OC4OCCCC4C23)cc1 (stereo partly shown),Ki,HIV-1 protease,< 1 nM
COc1ccc(S(=O)(=O)N(CC(C)C)C[C@@H](O)[C@H](Cc2ccccc2)NC(=O)O[C@H]2CCCC3O[C@H]4OCC[C@H]4C32)cc1 (stereo partly shown),Ki,HIV-1 protease,< 0.1 nM
same,IC50,HIV-1LAI,< 10 nM
COc1ccc(S(=O)(=O)N(CC(C)C)C[C@@H](O)[C@H](Cc2ccccc2)NC(=O)O[C@@H]2C[C@@H]3OC4OCCCC4[C@@H]3C2)cc1 (stereo partly shown),Ki,HIV-1 protease,< 0.1 nM
CC(C)CN(C[C@@H](O)[C@H](Cc1ccccc1)NC(=O)O[C@H]1CO[C@H]2O[C@@H]3OCC[C@@H]3[C@H]21)S(=O)(=O)c1ccc(N)cc1,Ki,HIV-1 protease,< 0.1 nM
COc1ccc(S(=O)(=O)N(CC(C)C)C[C@@H](O)[C@H](Cc2ccccc2)NC(=O)OC2CS(=O)(=O)CC3OC4OCCC4C23)cc1 (stereo partly shown),Ki,HIV-1 protease,< 1 nM
COc1ccc(S(=O)(=O)N(CC(C)C)C[C@@H](O)[C@H](Cc2ccccc2)NC(=O)OC2CS(=O)(=O)CC3OC4OCCCC4C23)cc1 (stereo partly shown),Ki,HIV-1 protease,> 10 nM
CC(C)CN(C[C@@H](O)[C@H](Cc1ccccc1)NC(=O)O[C@@H]1C[C@@H]2[C@H]3COC[C@H]3O[C@@H]2C1)S(=O)(=O)c1ccc(N)cc1,Ki,HIV-1 protease,< 0.1 nM
CC(C)CN(C[C@@H](O)[C@H](Cc1ccccc1)NC(=O)O[C@H]1CO[C@H]2O[C@@H]3COC[C@@H]3[C@H]21)S(=O)(=O)c1ccc(N)cc1,Ki,HIV-1 protease,< 0.1 nM
COc1ccc(S(=O)(=O)N(CC(C)C)C[C@@H](O)[C@H](Cc2ccccc2)NC(=O)O[C@H]2CO[C@H]3O[C@@H]4CCO[C@@H]4[C@H]32)cc1,Ki,HIV-1 protease,< 0.1 nM
COc1ccc(S(=O)(=O)N(CC(C)C)C[C@@H](O)[C@H](Cc2ccccc2)NC(=O)O[C@H]2CO[C@H]3O[C@@H]4COC[C@@H]4[C@H]32)cc1,Ki,HIV-1 protease,< 0.1 nM
CC(C)CN(C[C@@H](O)[C@H](Cc1ccccc1)NC(=O)O[C@@H]1C[C@@H]2[C@H]3OCC[C@H]3O[C@@H]2C1)S(=O)(=O)c1ccc(N)cc1,Ki,HIV-1 protease,> 10 nM
CC(C)CN(C[C@@H](O)[C@H](Cc1ccccc1)NC(=O)O[C@H]1CO[C@H]2O[C@@H]3CCO[C@@H]3[C@H]21)S(=O)(=O)c1ccc(N)cc1,Ki,HIV-1 protease,< 0.1 nM
"CC(C)CN(C[C@@H](O)[C@H](Cc1ccccc1)NC(=O)O[C@H]1CCOC1)S(=O)(=O)c1ccc(N)cc1 [APV, Amprenavir, reference compound]",fold changes of IC50 values compared to wild-type HIV-1ERS104pre,[1],1 fold
same,fold changes of IC50 values compared to wild-type HIV-1ERS104pre,HIV-1MDR/B (X4),16 fold
same,fold changes of IC50 values compared to wild-type HIV-1ERS104pre,HIV-1MDR/C (X4),11 fold
same,fold changes of IC50 values compared to wild-type HIV-1ERS104pre,HIV-1MDR/G (X4),15 fold
same,fold changes of IC50 values compared to wild-type HIV-1ERS104pre,HIV-1MDR/JSL (R5),13 fold
same,fold changes of IC50 values compared to wild-type HIV-1ERS104pre,HIV-1MDR/MM (R5),9 fold
same,fold changes of IC50 values compared to wild-type HIV-1ERS104pre,HIV-1MDR/TM (X4),15 fold
"CC(C)CN(C[C@@H](O)[C@H](Cc1ccccc1)NC(=O)O[C@H]1CO[C@H]2OCC[C@H]21)S(=O)(=O)c1ccc(N)cc1 [DRV, Darunavir, reference compound]",fold changes of IC50 values compared to wild-type HIV-1ERS104pre,[1],1 fold
same,fold changes of IC50 values compared to wild-type HIV-1ERS104pre,HIV-1MDR/B (X4),6 fold
same,fold changes of IC50 values compared to wild-type HIV-1ERS104pre,HIV-1MDR/C (X4),2 fold
same,fold changes of IC50 values compared to wild-type HIV-1ERS104pre,HIV-1MDR/G (X4),6 fold
same,fold changes of IC50 values compared to wild-type HIV-1ERS104pre,HIV-1MDR/JSL (R5),5 fold
same,fold changes of IC50 values compared to wild-type HIV-1ERS104pre,HIV-1MDR/MM (R5),3 fold
same,fold changes of IC50 values compared to wild-type HIV-1ERS104pre,HIV-1MDR/TM (X4),6 fold
COc1ccc(S(=O)(=O)N(CC(C)C)C[C@@H](O)[C@H](Cc2ccccc2)NC(=O)O[C@H]2CO[C@H]3O[C@H]4OCC[C@H]4[C@H]32)cc1 [Inhibitor 31],IC50,HIV-1LAI,< 1000 nM
COc1ccc(S(=O)(=O)N(CC(C)C)C[C@@H](O)[C@H](Cc2ccccc2)NC(=O)O[C@@H]2CO[C@@H]3O[C@@H]4OCC[C@@H]4[C@@H]32)cc1 [Inhibitor 32],IC50,HIV-1LAI,< 10 nM
COc1ccc(S(=O)(=O)N(CC(C)C)C[C@@H](O)[C@H](Cc2ccccc2)NC(=O)O[C@H]2CO[C@H]3O[C@@H]4OCC[C@@H]4[C@H]32)cc1 [Inhibitor 33],Ki,HIV-1 protease,< 0.1 nM
same,IC50,HIV-1LAI,< 10 nM
same,fold changes of IC50 values compared to wild-type HIV-1ERS104pre,[1],1 fold
same,fold changes of IC50 values compared to wild-type HIV-1ERS104pre,HIV-1MDR/B (X4),7 fold
same,fold changes of IC50 values compared to wild-type HIV-1ERS104pre,HIV-1MDR/C (X4),2 fold
same,fold changes of IC50 values compared to wild-type HIV-1ERS104pre,HIV-1MDR/G (X4),5 fold
same,fold changes of IC50 values compared to wild-type HIV-1ERS104pre,HIV-1MDR/JSL (R5),5 fold
same,fold changes of IC50 values compared to wild-type HIV-1ERS104pre,HIV-1MDR/MM (R5),5 fold
same,fold changes of IC50 values compared to wild-type HIV-1ERS104pre,HIV-1MDR/TM (X4),4 fold
same,antiviral activity against a panel of highly PI-resistant clinical HIV-1 variants,[2],effectively suppressed all tested clinical HIV-1 variants
COc1ccc(S(=O)(=O)N(CC(C)C)C[C@@H](O)[C@H](Cc2ccccc2)NC(=O)O[C@@H]2CO[C@@H]3O[C@H]4OCC[C@H]4[C@@H]32)cc1 [Inhibitor 34],Ki,HIV-1 protease,< 10 nM
same,IC50,HIV-1LAI,< 1000 nM
same,fold changes of IC50 values compared to wild-type HIV-1ERS104pre,[1],1 fold
same,fold changes of IC50 values compared to wild-type HIV-1ERS104pre,HIV-1MDR/B (X4),2 fold
same,fold changes of IC50 values compared to wild-type HIV-1ERS104pre,HIV-1MDR/C (X4),1 fold
same,fold changes of IC50 values compared to wild-type HIV-1ERS104pre,HIV-1MDR/G (X4),2 fold
same,fold changes of IC50 values compared to wild-type HIV-1ERS104pre,HIV-1MDR/JSL (R5),>2 fold
same,fold changes of IC50 values compared to wild-type HIV-1ERS104pre,HIV-1MDR/MM (R5),2 fold
same,fold changes of IC50 values compared to wild-type HIV-1ERS104pre,HIV-1MDR/TM (X4),2 fold
COc1ccc(S(=O)(=O)N(CC(C)C)C[C@@H](O)[C@H](Cc2ccccc2)NC(=O)O[C@H]2CO[C@H]3C[C@H]4OCC[C@H]4[C@H]32)cc1 [Inhibitor 35],Ki,HIV-1 protease,< 10 nM
same,IC50,HIV-1LAI,< 1000 nM
COc1ccc(S(=O)(=O)N(CC(C)C)C[C@@H](O)[C@H](Cc2ccccc2)NC(=O)O[C@H]2CO[C@H]3C[C@@H]4OCC[C@@H]4[C@H]32)cc1 [Inhibitor 36],Ki,HIV-1 protease,< 10 nM
same,IC50,HIV-1LAI,> 1000 nM
